According to the NIST ThermoML archive (doi:10.1021/acs.jced.9b00396):
Numbers after ± are expanded uncertainties.

Experiment: refractive index (Na D-line) (dimensionless)
Details: 298.15 K; 100 kPa; Liquid; Standard Abbe refractometry

SMILES | refractive index
CC(=O)OCCC(C)C [3-methylbutyl ethanoate] | 1.39852 ± 0.00037
OCc1ccccc1 [benzenemethanol] | 1.53876 ± 0.00037
C[S+](C)[O-] [dimethyl sulfoxide] | 1.47713 ± 0.00033
